Data as given in US20240132498A1, “CRYSTALLINE FORMS OF 5-(3,4-DIFLUOROBENZYL)-8-((1R,4R)-4-METHYLCYCLOHEXYL)-6,9-DIOXO-2,5,8-TRIAZASPIRO[3.5]NONANE-2-CARBALDEHYDE” (Cytokinetics, Incorporated, priority 2022, published 2024).

Tests used:
[1] = Dog cassette dosing IV pharmacokinetics; assay type: in vivo; details: plasma, male beagle dogs
Method: Non-naïve male beagle dogs (8 months to 3 years of age, body weight 8-14 kg) sourced from Jiangsu Johnsen Bioresource CO. and/or Beijing Rixinkeji CO., LTD and/or Beijing Marshall Biotechnology CO., LTD were used in this study. All animals for IV administration had free access to food and water. The IV dose solution was prepared in 10% DMA/50% PG/40% HP0CD solution (40% w/v aqueous HP0CD) at a concentration of 0.2 mg/mL. Concentrations of IV dose was measured at the end of the study. PK parameters were calculated using the nominal dose values if the measured values were within 20% of the nominal values. Blood samples were collected by venipuncture of peripheral veins except the dosing vein at pre-dose, 5 15, 30 min, 1, 2, 4, 6, 8 and 24 h post-dose. Blood samples were centrifuged and resultant plasma was frozen for bioanalysis. Plasma samples were stored at −80° C. before analysis. Plasma samples were analyzed for compound concentrations using the LC/MS/MS method. Briefly, a 50 p L aliquot of each plasma sample was mixed with 100 μL of acetonitrile that contained an internal standard. The mixture was vortexed and centrifuged. Ten (10) μL of the resulting solution was injected onto a reverse-phase C18 column and the resultant peaks detected on a LC/MS/MS equipped with a turbo ionspray ionization source. Sample concentrations below the limit of quantification (BLQ) were treated as zero for PK calculations. […] The elimination rate constant (k) was calculated as the absolute value of the slope of the linear regression of logarithm (log) of the concentration versus time for the last three data points of the concentration-time profiles. Apparent elimination half-life (t½) values were calculated as 1n(2)/k. […] AUC values were calculated from the dosing time to the last measurable concentration. AUC∞ values were calculated as the sum of the corresponding AUC and the ratio of the last detectable concentration divided by k. Plasma clearance (CL) was calculated from Dose/AUC.. […] Vss was calculated from MRT∞×CL. Maximum concentration (Cmax) and time to reach Cmax (tmax) were recorded as observed. […]

CYP2B6 = target: T1, CYP2B6 (Homo sapiens, UniProt P20813); assay: Time-dependent inhibition of CYP450 enzymes in human liver microsomes: CYP2B6; assay type: in vitro ADME
T1 construct: from tissue; host or cells: pooled human liver microsomes
T1 sequence (P20813 1-491): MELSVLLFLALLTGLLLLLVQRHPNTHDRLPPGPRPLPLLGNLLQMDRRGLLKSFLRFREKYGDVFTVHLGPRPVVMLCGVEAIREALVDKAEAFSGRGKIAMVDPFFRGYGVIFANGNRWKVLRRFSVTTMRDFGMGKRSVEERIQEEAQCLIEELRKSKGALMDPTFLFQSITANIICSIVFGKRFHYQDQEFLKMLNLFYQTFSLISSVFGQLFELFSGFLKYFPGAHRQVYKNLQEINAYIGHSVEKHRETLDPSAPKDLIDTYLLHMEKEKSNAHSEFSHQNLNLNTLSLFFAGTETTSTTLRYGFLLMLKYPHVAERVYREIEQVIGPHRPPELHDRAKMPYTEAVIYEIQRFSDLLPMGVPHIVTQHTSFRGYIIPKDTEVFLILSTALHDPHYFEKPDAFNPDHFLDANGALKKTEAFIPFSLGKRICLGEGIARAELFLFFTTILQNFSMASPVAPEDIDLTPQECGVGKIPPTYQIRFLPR
Method: An assessment of the time-dependent Inhibitory Potential of the test compounds against Principal Human Cytochrome P450 Isozymes using Human Liver Microsomes was also carried out using standard methods (Grimm et al, Drug Metab. Dispos., Jul; 37(7):1355-70. doi: 10.1124/dmd.109.026716, 2009). Pooled human microsomes and selective CYP probe substrates were used for in vitro assessment of test compounds at 25 and 50 μM as time-dependent inhibitors of […] human hepatic cytochrome P450 isozymes (CYP1A2, 2B6, 2C9, 2C19, 2D6, and 3A4). LC-MS/MS was used to quantify metabolite formation. The inhibition of each P450 enzyme in human liver microsomes was measured as the percentage decrease in the activity of marker metabolite formation as measured by LC-MS/MS compared to non-inhibited controls (=100% activity) at time zero and after 30 minutes incubation. The occurrence of any time dependent inhibition was then expressed as the fold change in enzyme activity at time zero relative to the activity after 30 minutes incubation. The time dependent inhibition for the compound 5-(3,4-difluorobenzyl)-8-((1 r,4r)-4-methylcyclohexyl)-6,9-dioxo-2,5, 8-triazaspiro [3.5]nonane-2-carbaldehyde (Compound 1) against CYP1A2, […], CYP2C8, CYP2C9, CYP2C19, CYP2D6, CYP3A4-M and CYP3A4-T is shown in Table B-12.

[2] = Short-term static storage stability of the solid (XRPD, HPLC); assay type: physicochemical
Method: Purity analysis was performed on an Agilent HP1100/Infinity 111260 series system equipped with a diode array detector and using OpenLAB software. The full method details are provided below.
For short-term (8 days or fewer) stability experiments, solid material was placed into open vials at elevated storage conditions, unless otherwise stated. These conditions were achieved using saturated salt solutions at specific temperatures within sealed containers. Storage containers were pre-equilibrated prior to input of samples.

SMILES	clearance [1]	half-life [1]	Vd ([1]; read-out: Vss)	(% Activity NADPH T0)/(% Activity NADPH T30) (CYP2B6; CYP2B6, 25 μM)	(% Activity NADPH T0)/(% Activity NADPH T30) (CYP2B6; CYP2B6, 50 μM)	activity at 30 min, 25 µM (CYP2B6; human, pooled human liver microsomes, CYP2B6, 25 μM, 30 minutes incubation, read-out: % Activity NADPH T30)	activity at 0 min, 25 µM (CYP2B6; human, pooled human liver microsomes, CYP2B6, 25 μM, time zero, read-out: % Activity NADPH T0)	activity at 30 min, 50 µM (CYP2B6; human, pooled human liver microsomes, CYP2B6, 50 μM, 30 minutes incubation, read-out: % Activity NADPH T30)	activity at 0 min, 50 µM (CYP2B6; human, pooled human liver microsomes, CYP2B6, 50 μM, time zero, read-out: % Activity NADPH T0)	HPLC purity ([2]; Before Storage)	XRPD ([2]; Before Storage)	XRPD ([2]; Storage at 25° C./97% RH for 8 days)	XRPD ([2]; Storage at 40° C./75% RH for 8 days)
C[C@H]1CC[C@H](N2CC(=O)N(Cc3ccc(F)c(F)c3)C3(CN(C=O)C3)C2=O)CC1 [Compound 1, 5-(3,4-difluorobenzyl)-8-((1r,4r)-4-methylcyclohexyl)-6,9-dioxo-2,5,8-triazaspiro[3.5]nonane-2-carbaldehyde]	5.12 mL/min/kg	11.8 h	4.48 L/kg	1.1	1.0	84%	95%	76%	76%				
C[C@H]1CC[C@H](N2CC(=O)N(Cc3ccc(F)c(F)c3)C3(CN(C=O)C3)C2=O)CC1 [Form II, 5-(3,4-difluorobenzyl)-8-((1r,4r)-4-methylcyclohexyl)-6,9-dioxo-2,5,8-triazaspiro[3.5]nonane-2-carbaldehyde]										98.2%	Form II	Unchanged by XRPD	Unchanged by XRPD
